Assay results taken from US20050208496A1, “Methods of testing for bronchial asthma or chronic obstructive pulmonary disease” (Genox Research, Inc., priority 2002, published 2005).

System: respiratory epithelial cells
Details: lot 1, Day 7, AI method

IL-13: human IL-13 (Peprotech, Inc.) added to the medium at 50 ng/mL to stimulate respiratory epithelial cells
AI700705 (46658_at) expression fold change: 2.4 fold
AI809925 (53010_at) expression fold change: 3.6 fold
AI821796 (57694_at) expression fold change: 3 fold
AI989346 (52327_s_at) expression fold change: 2.7 fold
AKAP2 (48035_at) expression fold change: 4.4 fold
AKAP10 (36632_at) expression, fold change upon IL-13 stimulation: 2 fold
ALOX15 (34636_at) expression, fold change upon IL-13 stimulation: 72.3 fold
ARHE (35803_at) expression fold change upon IL-13 stimulation: 2.3 fold
ARL7 (57151_at) expression fold change: 3.1 fold
AW019985 (48826_s_at) expression fold change: 6.9 fold
AXL (38433_at) expression, fold change upon IL-13 stimulation: 2.2 fold
BIG2 (34484_at) expression, fold change upon IL-13 stimulation: 2.2 fold
BST2 (39061_at) expression, fold change upon IL-13 stimulation: 3 fold
C1S (40496_at) expression, fold change upon IL-13 stimulation: 4.8 fold
C21orf11 (58957_at) expression fold change: 2.1 fold
CCND3 (1795_g_at) expression fold change upon IL-13 stimulation: 2.1 fold
CDH6 (57421_at) expression fold change: 3.8 fold
CDH26 (46916_at) expression fold change: 8.6 fold
CH25H (32363_at) expression, fold change upon IL-13 stimulation: 15.1 fold
CLDN5 (38995_at) expression, fold change upon IL-13 stimulation: 2.9 fold
CTSC (133_at) expression, fold change upon IL-13 stimulation: 2.8 fold
CXCL16 (44095_at) expression fold change: 4 fold
DBCCR1 (40292_at) expression, fold change upon IL-13 stimulation: 3.1 fold
DD96 (31610_at) expression, fold change upon IL-13 stimulation: 3.3 fold
DDIT3 (39420_at) expression, fold change upon IL-13 stimulation: 5.2 fold
DKFZP564O0823 (41402_at) expression, fold change upon IL-13 stimulation: 3.9 fold
DKFZP566J091 (57197_at) expression fold change: 11.3 fold
DNAJA1 (276_at) expression fold change upon IL-13 stimulation: 2.5 fold
DPP4 (34823_at) expression fold change upon IL-13 stimulation: 3.2 fold
DPYD (38220_at) expression fold change upon IL-13 stimulation: 2.5 fold
EMILIN-2 (51628_at) expression fold change: 3.1 fold
FADS3 (43394_s_at) expression fold change: 4.5 fold
FETUB (32620_at) expression fold change: 8.4 fold
FETUB (33101_g_at) expression fold change: 9 fold
FLJ10261 (43366_at) expression fold change: 10.6 fold
FLJ10261 (43963_at) expression fold change: 8.7 fold
FLJ14281 (50209_at) expression fold change: 2.5 fold
FLJ20420 (46233_at) expression fold change: 2.1 fold
FLJ22332 (56959_at) expression fold change: 3.4 fold
G1P3 (1358_s_at) expression, fold change upon IL-13 stimulation: 2.5 fold
GADD45G (39154_at) expression fold change upon IL-13 stimulation: 4.3 fold
H11 (56474_at) expression fold change: 2.3 fold
HLA-F (37420_i_at) expression, fold change upon IL-13 stimulation: 3.3 fold
HLA-F (37421_f_at) expression, fold change upon IL-13 stimulation: 2.4 fold
HLA-F (49203_f_at) expression fold change: 3.4 fold
HLALS (34427_g_at) expression, fold change upon IL-13 stimulation: 2 fold
HS3ST1 (41556_s_at) expression fold change upon IL-13 stimulation: 3.8 fold
HSD17B2 (38178_at) expression fold change upon IL-13 stimulation: 3.1 fold
HSPA5 (47634_at) expression fold change: 2.7 fold
HUMRTVLH3 (34702_f_at) expression, fold change upon IL-13 stimulation: 6.1 fold
Human hbc647 mRNA sequence (34759_at) expression, fold change upon IL-13 stimulation: 2.5 fold
ICAMt (32640_at) expression fold change upon IL-13 stimulation: 3.1 fold
IFI27 (425_at) expression, fold change upon IL-13 stimulation: 2.1 fold
IFI30 (39728_at) expression, fold change upon IL-13 stimulation: 2.1 fold
IFIT4 (38584_at) expression, fold change upon IL-13 stimulation: 4.6 fold
IL13RA2 (1016_s_at) expression fold change upon IL-13 stimulation: 4.8 fold
IRLB (32961_at) expression fold change: 2.5 fold
ISG15 (1107_s_at) expression, fold change upon IL-13 stimulation: 3 fold
KIAA0469 (37230_at) expression, fold change upon IL-13 stimulation: 2 fold
KIAA0537 (33787_at) expression, fold change upon IL-13 stimulation: 8.8 fold
KIAA1199 (36070_at) expression, fold change upon IL-13 stimulation: 4.3 fold
KRT16 (601_s_at) expression fold change: 3.6 fold
LOC57118 (51085_at) expression fold change: 2.2 fold
LOC64116 (40456_at) expression, fold change upon IL-13 stimulation: 2.8 fold
LRPAP1 (36194_at) expression, fold change upon IL-13 stimulation: 2.2 fold
MAT2A (32571_at) expression fold change upon IL-13 stimulation: 2.5 fold
MDA5 (51920_at) expression fold change: 3.8 fold
MED6 (35432_at) expression fold change: 2.7 fold
MET (1609_g_at) expression, fold change upon IL-13 stimulation: 2.6 fold
MET (1812_s_at) expression, fold change upon IL-13 stimulation: 5 fold
MET (35684_at) expression, fold change upon IL-13 stimulation: 3.4 fold
MFHAS1 (50388_at) expression fold change: 2.3 fold
MICB (35937_at) expression, fold change upon IL-13 stimulation: 3.5 fold
MKP-L (38272_at) expression, fold change upon IL-13 stimulation: 2.9 fold
MMP7 (668_s_at) expression, fold change upon IL-13 stimulation: 2.8 fold
MP1 (34839_at) expression, fold change upon IL-13 stimulation: 2 fold
MXI (37014_at) expression fold change: 2.9 fold
NCF2 (41038_at) expression fold change: 4 fold
NFIL3 (37544_at) expression fold change: 2.5 fold
NK4 (39119_s_at) expression fold change upon IL-13 stimulation: 6 fold
NOS2A (1948_f_at) expression fold change upon IL-13 stimulation: 9.4 fold
NOS2A (48918_at) expression fold change: 8.3 fold
NTRK1 (36805_s_at) expression, fold change upon IL-13 stimulation: 8.7 fold
OAF (39695_at) expression, fold change upon IL-13 stimulation: 4.3 fold
OAS1 (38389_at) expression fold change upon IL-13 stimulation: 2.4 fold
OSF-2 (1451_s_at) expression fold change upon IL-13 stimulation: 25.4 fold
PAK2 (1560_g_at) expression, fold change upon IL-13 stimulation: 2.4 fold
PITPNB (353_at) expression, fold change upon IL-13 stimulation: 2.8 fold
PITPNB (35017_f_at) expression, fold change upon IL-13 stimulation: 2.3 fold
PKD2 (38120_at) expression, fold change upon IL-13 stimulation: 2.7 fold
PLS1 (39951_at) expression fold change: 5.4 fold
PMCH (32005_at) expression fold change: 11 fold
PSMB9 (38287_at) expression fold change upon IL-13 stimulation: 2.6 fold
PVRL2 (50320_g_at) expression fold change: 2.2 fold
RASGRP1 (33291_at) expression fold change: 2.8 fold
RIG-1 (59215_at) expression fold change: 2.8 fold
SECTM1 (41045_at) expression, fold change upon IL-13 stimulation: 4.4 fold
SERPINB2 (37185_at) expression fold change: 5.3 fold
SERPINB4 (1549_s_at) expression fold change: 7.8 fold
SERPINB6 (34789_at) expression fold change: 2 fold
SIAT1 (41352_at) expression fold change upon IL-13 stimulation: 8.7 fold
SLC26A4, pendrin (36376_at) expression fold change: 20.1 fold
SPHK1 (51923_at) expression fold change: 2.1 fold
SSI-1 (41592_at) expression, fold change upon IL-13 stimulation: 6.1 fold
STAT1 (32859_at) expression fold change: 2.1 fold
TGFB2 (1262_s_at) expression fold change upon IL-13 stimulation: 3.2 fold
